Measured values taken from patent publication US9855270B2, “Methods and compositions for modulating estrogen receptor mutants” (priority 2014, dated 2018).
Like-named read-outs stand apart in the source and are kept apart here.

Experiments:
Assay in all cases: cells
Format in all cases: cell-based
Parameters in all cases: Percent inhibition compared to vehicle: concentration or dose not given beside the values
[1] = test system: MCF-7 cells stably expressing EF1 HA-ER-α E380Q; conditions: EF1 HA-ER-α E380Q; for Percent inhibition compared to vehicle: 5-Day Incubation; for Efficacy (Emax): Day 5 relative to Day 0; for EC50: read-out: Potency (EC50; nM)
Description: (§1) MCF-7 Mutant ER-α Stable Cell Line Generation: MCF-7 cells stably expressing wild-type or ER-α mutants were generated by subcloning ESR1 wild-type and mutant cDNAs containing an amino terminal hemagglutinin tag into pCDH-EF1-MCS-(PGK-Puro) (referred to as EF1 HA-ER-α) and pCDH-UbC-MCS-EF1-Hygro (referred to as UbC HA-ER-α) (System Biosciences). The resulting plasmids, in addition to an empty vector negative control, were subsequently cotransfected into HEK293T cells with the pPACKH1 packaging plasmid mix (System Biosciences) according to the manufacturer's protocol. Four days post transfection lentiviral particles were purified from the cell medium, tiered and stored at −80° C. MCF-7 cells were transduced with the purified viral particles and stable cell lines were selected by growth in RPMI containing 10% FBS plus 1 μG/mL puromycin or 200 μG/mL hygromycin for pCDH-EF1-MCS-(PGK-Puro) and pCDH-UbC-MCS-EF1-Hygro, respectively.
(§2) MCF-7 Stable Cell Line Viability: MCF-7 cells were enumerated with a hemacytometer adjusted to a concentration of 40,000 cells per mL in Phenol Free RPMI containing 10% CSS with NEAA and Sodium Pyruvate. 16 microliters of the cell suspension was added to each well of a 384 well tissue culture treated white clear bottom polystyrene plate (Corning) using a Matrix 16 channel electronic pipette. The cells were incubated overnight to allow the cells to adhere. The following day, 16 microliters of Phenol Free RPMI containing 10% CSS with NEAA and Sodium Pyruvate was added to the wells of one plate, followed by 16 μL of CellTiter-Glo (Promega, Madison Wis.) luminescent cell viability reagent using a Matrix 16 channel electronic pipette. […] The “average” of the relative luminescence units (RLUs) of the wells are considered to be the baseline value at time=zero. In addition, a 10 point, 1:5 serial dilution in DMSO (Sigma-Aldrich) was performed using Matrix 12 channel electronic pipette, including DMSO only as […]. 4 μL of each dilution was then added to 196 μL of RPMI containing 10% CSS with NEAA and Sodium Pyruvate. 16 μL of medium containing compound was added to the cells at a final concentration ranging from 10 μM to 5 pM. Compound dilution in media and subsequent addition to cells were carried out using Matrix 12 channel electronic pipettes. After 5 day compound exposure, 16 μL of CellTiter-Glo (Promega, Madison Wis.) luminescent cell viability reagent was added to the cells using a Matrix 16 channel electronic pipette. CellTiter-Glo added to 32 μL of medium without cells was used to obtain a background value. […] The relative luminescence units (RLUs) of each well were measured, and relative proliferation (fold) of each sample was determined as follows: (RLU sample−RLU background)/(RLU at T=0)=relative proliferation
(§3) The UbC promoter is reported by the manufacturer (System Biosciences) to express low to moderate RNA levels while the EF1 promoter expresses high levels (System Biosciences).

[2] = test system: MCF-7 cells stably expressing EF1 HA-ER-α L536P; conditions: EF1 HA-ER-α L536P; for Percent inhibition compared to vehicle: 5-Day Incubation; for Efficacy (Emax): Day 5 relative to Day 0; for EC50: read-out: Potency (EC50; nM)
Description: as §1, §2, §3

[3] = test system: MCF-7 cells stably expressing EF1 HA-ER-α L536R; conditions: EF1 HA-ER-α L536R; for Percent inhibition compared to vehicle: 5-Day Incubation; for Efficacy (Emax): Day 5 relative to Day 0; for EC50: read-out: Potency (EC50; nM)
Description: as §1, §2, §3

[4] = test system: MCF-7 cells stably expressing EF1 HA-ER-α Y537N; conditions: EF1 HA-ER-α Y537N; for Percent inhibition compared to vehicle: 5-Day Incubation; for Efficacy (Emax): Day 5 relative to Day 0; for EC50: read-out: Potency (EC50; nM)
Description: as §1, §2, §3

[5] = test system: MCF-7 cells stably expressing UbC HA-ER-α E380Q; conditions: UbC HA-ER-α E380Q; for Percent inhibition compared to vehicle: 5-Day Incubation; for EC50: read-out: Potency (EC50; nM)
Description: as §1, §2, §3

[6] = test system: MCF-7 cells stably expressing UbC HA-ER-α L536P
Description: as §1, §2, §3

[7] = test system: MCF-7 cells stably expressing UbC HA-ER-α L536R; conditions: UbC HA-ER-α L536R; for Efficacy (Emax): Day 5 relative to Day 0; for EC50: read-out: Potency (EC50; nM)
Description: as §1, §2, §3

[8] = test system: MCF-7 cells stably expressing UbC HA-ER-α Y537N; conditions: UbC HA-ER-α Y537N; for Percent inhibition compared to vehicle: 5-Day Incubation; for Efficacy (Emax): Day 5 relative to Day 0; for EC50: read-out: Potency (EC50; nM)
Description: as §1, §2, §3

[9] = Antagonist Mode, −E2 (Table 27)
[10] = Antagonist Mode, +E2, 5-Day Incubation

CCC(=C(c1ccc(O)cc1)c1ccc(OCCN(C)C)cc1)c1ccccc1 [4-Hydroxytamoxifen]
Percent inhibition compared to vehicle ([1]; Agonist Mode, −E2): 21% | Efficacy (Emax) ([1]; Agonist Mode, −E2): 5.17 ± 0.26 | EC50 ([1]; Agonist Mode, −E2): 26 ± 9.12 nM | Percent inhibition compared to vehicle ([1]; Antagonist Mode, +E2): 19% | Efficacy (Emax) ([1]; Antagonist Mode, +E2): 5.03 ± 0.85 | EC50 ([1]; Antagonist Mode, +E2): 65.4 ± 24.4 nM | EC50 [1, 9]: 26 ± 9.12 nM | Percent inhibition compared to vehicle ([2]; Agonist Mode, −E2): 58% | Efficacy (Emax) ([2]; Agonist Mode, −E2): 3.47 ± 0.03 | EC50 ([2]; Agonist Mode, −E2): 4.39 ± 0.723 nM | Percent inhibition compared to vehicle ([2]; Antagonist Mode, +E2): 60% | Efficacy (Emax) ([2]; Antagonist Mode, +E2): 3.64 ± 0.26 | EC50 ([2]; Antagonist Mode, +E2): 9.22 ± 0.546 nM | EC50 [2, 9]: 4.39 ± 0.723 nM | Percent inhibition compared to vehicle ([3]; Agonist Mode, −E2): 43% | Efficacy (Emax) ([3]; Agonist Mode, −E2): 3.91 ± 0.04 | EC50 ([3]; Agonist Mode, −E2): 7.14 ± 6.64 nM | Percent inhibition compared to vehicle ([3]; Antagonist Mode, +E2): 47% | Efficacy (Emax) ([3]; Antagonist Mode, +E2): 3.65 ± 0.29 | EC50 ([3]; Antagonist Mode, +E2): 19 ± 18.2 nM | EC50 [3, 9]: 7.14 ± 6.64 nM | Percent inhibition compared to vehicle ([4]; Agonist Mode, −E2): 60% | Efficacy (Emax) ([4]; Agonist Mode, −E2): 2.43 ± 0.13 | EC50 ([4]; Agonist Mode, −E2): 6.04 ± 1.36 nM | Percent inhibition compared to vehicle ([4]; Antagonist Mode, +E2): 57% | Efficacy (Emax) ([4]; Antagonist Mode, +E2): 2.39 ± 0.24 | EC50 ([4]; Antagonist Mode, +E2): 5.25 ± 2.84 nM | EC50 [4, 9]: 6.04 ± 1.36 nM | Percent inhibition compared to vehicle ([5]; Agonist Mode, −E2): 44% | EC50 ([5]; Agonist Mode, −E2): 1.59 ± 0.681 nM | Percent inhibition compared to vehicle ([5]; Antagonist Mode, +E2): 66% | EC50 ([5]; Antagonist Mode, +E2): 4.92 ± 0.671 nM | Percent inhibition compared to vehicle ([6]; Agonist Mode, −E2, 5-Day Incubation): 35% | Efficacy (Emax) ([6]; Agonist Mode, −E2, Day 5 relative to Day 0): 2.06 ± 0.19 | EC50 ([6]; Agonist Mode, −E2, read-out: Potency (EC50; nM)): 0.821 ± 0.726 nM | Percent inhibition compared to vehicle [6, 10]: 61% | Efficacy (Emax) ([6]; Antagonist Mode, +E2, Day 5 relative to Day 0): 2.31 ± 0.27 | EC50 ([6]; Antagonist Mode, +E2, read-out: Potency (EC50; nM)): 2.13 ± 4.68 nM | Efficacy (Emax) ([7]; Agonist Mode, −E2): 2.26 ± 0.36 | EC50 ([7]; Agonist Mode, −E2): 1.06 ± 0.714 nM | Percent inhibition compared to vehicle [7, 10]: 61% | Efficacy (Emax) ([7]; Antagonist Mode, +E2): 2.34 ± 0.18 | EC50 ([7]; Antagonist Mode, +E2): 6.09 ± 4.42 nM | Percent inhibition compared to vehicle ([8]; Agonist Mode, −E2): 46% | Efficacy (Emax) ([8]; Agonist Mode, −E2): 2.34 ± 0.29 | EC50 ([8]; Agonist Mode, −E2): 1.58 ± 0.955 nM | Percent inhibition compared to vehicle ([8]; Antagonist Mode, +E2): 65% | Efficacy (Emax) ([8]; Antagonist Mode, +E2): 2.27 ± 0.07 | EC50 ([8]; Antagonist Mode, +E2): 5.03 ± 0.765 nM
